From article PMC6680850, “Anion Inhibition Profile of the β-Carbonic Anhydrase from the Opportunist Pathogenic Fungus Malassezia restricta Involved in Dandruff and Seborrheic Dermatitis” (Metabolites, 2019)
Counter-ions that a name gives are not always drawn. Like-named read-outs stand apart in the source and are kept apart here.

What was measured:
[1] = target: β-CA from Malassezia restricta (MreCA) (Malassezia restricta, UniProt A0A3G2S4B9); experiment: biochemical; type: biochemical
[2] = target: β-CA from Malassezia globosa (MgCA); design: method as in PMID 29152053; conditions: cited from earlier work
[3] = target: hCA I; conditions: cited from earlier work
[4] = target: hCA II; conditions: cited from earlier work; for Ki: pH 8.3
[5] = CO2 hydration reaction, 20 °C, pH 8.3, stopped flow, ref [31]

Sequence of β-CA from Malassezia restricta (MreCA) (A0A3G2S4B9 1-238): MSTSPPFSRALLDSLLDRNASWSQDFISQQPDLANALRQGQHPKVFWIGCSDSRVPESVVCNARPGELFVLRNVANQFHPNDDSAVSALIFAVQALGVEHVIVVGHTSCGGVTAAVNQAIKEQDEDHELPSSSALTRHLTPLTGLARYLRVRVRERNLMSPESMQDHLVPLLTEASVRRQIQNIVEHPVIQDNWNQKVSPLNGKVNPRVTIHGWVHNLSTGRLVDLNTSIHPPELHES

With `OB1OB2OB(O)OB(O1)O2` [B4O7^2−, tetraborate] as the molecule, how does the Ki ([1]; pH 8.3, read-out: KI MreCA) read?
The Ki was 0.4 mM.

And the Ki ([2]; pH 8.3)?
Its Ki is 8.45 mM.

With `[Br-].[K+]` [Br^−, bromide] as the molecule, how does the Ki ([3]; pH 8.3) read?
Its Ki is 4 mM.

What about the Ki ([1]; pH 8.3, read-out: KI MreCA) of the same molecule?
Its Ki is over 50 mM.

And the Ki ([2]; pH 8.3)?
Its Ki is 18.6 mM.

And the Ki [4]?
The Ki was 63 mM.

Which results are given for `O=S(=O)(O)C(F)(F)F` [CF3SO3^−, trifalate]?
Ki ([1]; pH 8.3, read-out: KI MreCA): 4.5 mM; Ki [2, 5]: 2.28 mM

With `N#CO` [CNO^−, cyanate] as the molecule, how does the Ki ([1]; pH 8.3, read-out: KI MreCA) read?
Its Ki is over 50 mM.

What about the Ki ([2]; pH 8.3) of the same molecule?
The Ki was 6.81 mM.

Which Ki ([1]; pH 8.3, read-out: KI MreCA) does the source give for `O=C(O)O` [CO3^2, carbonate] here?
The Ki was over 50 mM.

And the Ki ([2]; pH 8.3)?
The Ki was over 100 mM.

With `S=C(S)S` [CS3^2−, trithiocarbonate] as the molecule, how does the Ki [3, 5] read?
The Ki was 0.0087 mM.

And the Ki ([1]; pH 8.3, read-out: KI MreCA)?
Its Ki is 0.92 mM.

And the Ki [2, 5]?
The Ki was 1.77 mM.

For `[O-][Cl+3]([O-])([O-])O` [ClO4^−, perchlorate], which Ki ([1]; pH 8.3, read-out: KI MreCA) is on record?
Its Ki is 9.2 mM.

What about the Ki ([2]; pH 8.3) of the same molecule?
The Ki was over 100 mM.

What does the source list for `Cl` [Cl^−, chloride]?
Ki ([3]; pH 8.3): 6 mM; Ki ([1]; pH 8.3, read-out: KI MreCA): > 50 mM; Ki ([2]; pH 8.3): 7.98 mM

For `CCN(CC)C(=S)S` [Et2NCS2^−, diethyldithiocarbamate], which Ki [3, 5] is on record?
The Ki was 0.00079 mM.

And the Ki [1]?
The Ki was 0.075 mM.

What about the Ki [2, 5] of the same molecule?
The Ki was 0.3 mM.

For `F` [F^−, fluoride], which Ki ([1]; pH 8.3, read-out: KI MreCA) is on record?
The Ki was over 50 mM.

What about the Ki ([2]; pH 8.3) of the same molecule?
The Ki was 7.13 mM.

What does the source list for `O=C(O)O` [HCO3^−, bicarbonate]?
Ki ([1]; pH 8.3, read-out: KI MreCA): 0.86 mM; Ki ([2]; pH 8.3): 0.59 mM

With `O=S(O)O` [HSO3^−, bisulfite] as the molecule, how does the Ki [3, 5] read?
The Ki was 18 mM.

What about the Ki ([1]; pH 8.3, read-out: KI MreCA) of the same molecule?
Its Ki is over 50 mM.

What about the Ki [2, 5] of the same molecule?
Its Ki is over 100 mM.

With `I` [I^−, iodide] as the molecule, how does the Ki [3, 5] read?
Its Ki is 0.3 mM.

And the Ki ([1]; pH 8.3, read-out: KI MreCA)?
Its Ki is 8.6 mM.

And the Ki [2, 5]?
The Ki was 8.73 mM.

Which results are given for `NS(N)(=O)=O` [Inhibitor H2NSO2NH2, sulfamide]?
Ki ([1]; pH 8.3, read-out: KI MreCA): 0.72 mM; Ki [2, 5]: 0.094 mM

Which Ki ([1]; pH 8.3, read-out: KI MreCA) does the source give for `[N-]=[N+]=[N-]` [N3^−, azide] here?
Its Ki is over 50 mM.

What about the Ki ([2]; pH 8.3) of the same molecule?
Its Ki is 45.2 mM.

And the “inhibition of hCA II in words” value [4]?
The value was “well inhibited”.

Which Ki [3, 5] does the source give for `NS(=O)(=O)O` [NH2SO3H, sulfamic acid] here?
The Ki was 0.021 mM.

And the Ki ([1]; pH 8.3, read-out: KI MreCA)?
Its Ki is 7.7 mM.

And the Ki [2, 5]?
Its Ki is 0.083 mM.

With `O=S(=O)(O)NS(=O)(=O)O` [NH(SO3)2^2−, iminodisulfite] as the molecule, how does the Ki [3, 5] read?
The Ki was 0.31 mM.

What about the Ki ([1]; pH 8.3, read-out: KI MreCA) of the same molecule?
The Ki was over 50 mM.

What about the Ki [2, 5] of the same molecule?
The Ki was 21.4 mM.

Which Ki ([1]; pH 8.3, read-out: KI MreCA) does the source give for `O=NO` [NO2^−, nitrite] here?
Its Ki is over 50 mM.

And the Ki ([2]; pH 8.3)?
The Ki was 7.56 mM.

Which Ki [3, 5] does the source give for `O=[N+]([O-])O` [NO3^−, nitrate] here?
Its Ki is 7 mM.

And the Ki ([1]; pH 8.3, read-out: KI MreCA)?
The Ki was 9 mM.

What about the Ki [2, 5] of the same molecule?
Its Ki is 8.13 mM.

With `O=P(O)(O)OP(=O)(O)O` [P2O7^2−, pyrophosphate] as the molecule, how does the Ki [3, 5] read?
The Ki was 25.8 mM.

And the Ki ([1]; pH 8.3, read-out: KI MreCA)?
Its Ki is over 50 mM.

What about the Ki [2, 5] of the same molecule?
Its Ki is 6.03 mM.

With `F[P-](F)(F)(F)(F)F` [PF6^−, esafluorofosfato] as the molecule, how does the Ki ([1]; pH 8.3, read-out: KI MreCA) read?
Its Ki is 3.9 mM.

And the Ki [2, 5]?
Its Ki is 6.47 mM.

For `O=[As](O)(O)c1ccccc1` [PhAsO3H2, phenylarsonic acid], which Ki ([3]; pH 8.3) is on record?
The Ki was 31.7 mM.

And the Ki ([2]; pH 8.3)?
The Ki was 0.09 mM.

And the Ki [4]?
The Ki was 49.2 mM.

For `OB(O)c1ccccc1` [PhB(OH)2, phenylboronic acid], which “inhibition of hCA I in words” value [3] is on record?
Its value is “not well inhibited”.

And the Ki ([3]; pH 8.3)?
Its Ki is 58.6 mM.

What about the Ki [1] of the same molecule?
Its Ki is 8.7 mM.

What about the Ki ([2]; pH 8.3) of the same molecule?
The Ki was 0.089 mM.

For `[O]=[Re](=[O])(=[O])[OH]` [ReO4^−, perrhenate], which Ki ([1]; pH 8.3, read-out: KI MreCA) is on record?
Its Ki is over 50 mM.

And the Ki [2, 5]?
Its Ki is 16.7 mM.

Which Ki ([1]; pH 8.3, read-out: KI MreCA) does the source give for `[O]=[Ru](=[O])(=[O])=[O]` [RuO4^−, perruthenate] here?
Its Ki is 7.4 mM.

What about the Ki [2, 5] of the same molecule?
Its Ki is 8.82 mM.

For `O=S(=O)(O)OOS(=O)(=O)O` [S2O8^2−, peroxydisulfate], which Ki ([1]; pH 8.3, read-out: KI MreCA) is on record?
The Ki was over 50 mM.

And the Ki [2, 5]?
Its Ki is over 100 mM.

Which results are given for `N#CS` [SCN^−, thiocyanate]?
Ki ([1]; pH 8.3, read-out: KI MreCA): > 50 mM; Ki ([2]; pH 8.3): 8.39 mM

Which Ki ([2]; pH 8.3) does the source give for `O=S(=O)(O)O` [SO4^2−, sulfate] here?
Its Ki is 19.5 mM.

For `N#C[SeH]` [SeCN^−, selenocyanate], which Ki ([3]; pH 8.3) is on record?
The Ki was 0.085 mM.

And the Ki ([1]; pH 8.3, read-out: KI MreCA)?
The Ki was 0.65 mM.

And the Ki ([2]; pH 8.3)?
The Ki was 1.73 mM.

What does the source list for `O=[Se](=O)(O)O` [SeO4^2−]?
Ki ([1]; pH 8.3, read-out: KI MreCA): 1.7 mM; Ki ([2]; pH 8.3): 7.41 mM

For `[O]=[Sn]([OH])[OH]` [SnO3^2−, stannate], which Ki ([1]; pH 8.3, read-out: KI MreCA) is on record?
The Ki was 0.56 mM.

And the Ki ([2]; pH 8.3)?
The Ki was 5.07 mM.

Which Ki ([3]; pH 8.3) does the source give for `O=[Te](=O)(O)O` [TeO4^2−, tellurate] here?
The Ki was 0.66 mM.

And the Ki ([1]; pH 8.3, read-out: KI MreCA)?
The Ki was 0.56 mM.

And the Ki ([2]; pH 8.3)?
The Ki was 5.75 mM.

For `[O]=[V]([OH])([OH])[O][V](=[O])([OH])[OH]` [V2O7^2−, divanadate], which Ki [3, 5] is on record?
Its Ki is 0.54 mM.

What about the Ki ([1]; pH 8.3, read-out: KI MreCA) of the same molecule?
Its Ki is over 50 mM.

And the Ki [2, 5]?
Its Ki is 6.89 mM.

With osmate [OsO5^2−] as the molecule, how does the Ki ([1]; pH 8.3, read-out: KI MreCA) read?
The Ki was 8.5 mM.

And the Ki ([2]; pH 8.3)?
The Ki was 6.16 mM.
